{
  "source": "patent US6407085B1",
  "about": "“Medicament containing betasitosterol and/or phytosterol/betasitosterol mixtures” (priority 1997, dated 2002)",
  "key": {"[1]": {"assay": "oral tolerability of betasitosterol esters", "type": "in vivo", "conditions": "taken orally"}, "[2]": {"assay": "dissolving in oils, paraffins, stearates, Vaseline or glycerin with heat", "type": "physicochemical", "conditions": "for appearance in glycerin after cooling: after heating in glycerin; for appearance in oil after cooling: after heating in oil", "description": "The solubility of phytosterol/betasitosterol mixtures and betasitosterol metabolites can be accelerated and improved with respect to yield if the effective ingredients are treated in oil, paraffins, stearates, or Vaseline with the application of heat at temperatures of around 70° C. to 160° C., advantageously at 120° C. to 140° C., advantageously over a period of 30 minutes to 3 hours.\nIf betasitosterol or sodium desoxycholate is heated in diverse natural and mineral oils, paraffins, commercially-available hypoallergenic stearate mixtures, or Vaseline (2 g substance in 100 ml) to 120° C., both substances dissolve fully within 90 minutes. Upon further heating to 150° C. (at 140° C., betasitosterol becomes liquid), betasitosterol dissolves up to around 15% in stearate mixtures, paraffins, and plant and mineral oils. […] In like manner, betasitosterol and sodium desoxycholate can be introduced into glycerin."}, "[3]": {"conditions": "cited from earlier work"}, "[4]": {"conditions": "in vivo; cited from earlier work"}, "[5]": {"conditions": "chloroform; cited from earlier work"}, "[6]": {"assay": "solubility in oils, chloroform and water at room temperature"}, "psoriasis": {"system": "psoriasis", "assay": "salve applied to the skin in psoriasis", "type": "in vivo", "description": "If phytosterol/betasitosterol mixtures, when they are dissolved in the above described form in oil, are stirred into a salve base alone or in a mixture with sodium desoxycholate in aqueous solution in a concentration of 0.5 to 2.0% and the salve base is applied to the skin, the itching of neurodermatitis usually is eased after only 2 to 5 minutes. Inflammation processes with redness and swelling are alleviated after 24 to 48 hours. Thus a histamine antagonistic as well as a cortisone-like effect is determined, but without the side effects of the hormone. In the case of psoriasis, the formation of scales is often reduced even in extreme cases only 24 hours after the first application, particularly with the use of the metabolite desoxycholic acid. Here again the use of such substances is completely unproblematic in contrast to a salve with a component of vitamin-D-like structure, which as a result of the resorption of the vitamin-D-like molecule can be applied only to a limited extent because of the danger of overdosing and thus the influencing of calcium metabolism."}},
  "data": [
    {"compound": "CC[C@H](CC[C@@H](C)[C@H]1CC[C@H]2[C@@H]3CC=C4C[C@@H](OC(=O)[C@H](O)[C@@H](O)[C@H](O)[C@H](O)CO)CC[C@]4(C)[C@H]3CC[C@]12C)C(C)C", "note": "[betasitosterol gluconic acid ester]", "values": [
      {"measurement": "tolerability", "setting": "[1]", "value": "free of side effects and very well tolerated"}
    ]},
    {"compound": "CC[C@H](CC[C@@H](C)[C@H]1CC[C@H]2[C@@H]3CC=C4C[C@@H](O)CC[C@]4(C)[C@H]3CC[C@]12C)C(C)C", "note": "[betasitosterol]", "values": [
      {"measurement": "appearance in glycerin after cooling", "setting": "[2]", "value": "slightly opalescent"},
      {"measurement": "appearance in oil after cooling", "setting": "[2]", "value": "slightly opalescent"},
      {"measurement": "dissolving in glycerin", "setting": "[2]; heated to 120° C.", "value": "dissolve completely clear"},
      {"measurement": "amount dissolved", "setting": "[2]; heating to 150° C., stearate mixtures, paraffins, plant and mineral oils", "value": "around 15%"},
      {"measurement": "resorption quotient", "setting": "[3]; healthy subjects", "value": "around 5%"},
      {"measurement": "blood count", "setting": "[3]; oral administration of up to 24 g per day", "value": 10, "unit": "mg"},
      {"measurement": "portion metabolized into cholic acid and chenodesoxycholic acid", "setting": "[4]", "value": "around 20%"},
      {"measurement": "solubility (D'ans-Lax)", "setting": "[5]", "value": "soluble in chloroform"},
      {"measurement": "solubility in oil on addition of sodium desoxycholate", "setting": "[6]", "value": "further improved"},
      {"measurement": "solubility in oil at room temperature", "setting": "[6]; linseed oil, safflower oil, neutral oil, standing longer than 24 h at room temperature", "value": "dissolves in sufficient quantity"}
    ]},
    {"compound": "desoxycholic acid", "values": [
      {"measurement": "appearance in glycerin after cooling", "setting": "[2]", "value": "white pasty mass"},
      {"measurement": "appearance with safflower oil", "setting": "[2]; heated to 120° C.", "value": "cloudy-opalescent emulsion"},
      {"measurement": "time after first application until formation of scales is reduced", "setting": "psoriasis", "value": 24, "unit": "h"}
    ]},
    {"compound": "sodium desoxycholate", "values": [
      {"measurement": "appearance in glycerin after cooling", "setting": "[2]", "value": "remains clear"},
      {"measurement": "appearance in oil after cooling", "setting": "[2]", "value": "remains clear"},
      {"measurement": "dissolving in glycerin", "setting": "[2]; heated to 120° C.", "value": "dissolve completely clear"},
      {"measurement": "water solubility", "setting": "[6]", "value": "relatively water soluble"}
    ]}
  ]
}
